Assay results reported in PMC9892044, “Synthesis of new diphenyl urea-clubbed imine analogs and its Implications in diabetic management through in vitro and in silico approaches” (Scientific Reports, 2023).

melting point [°C] | Compound
218 to 220 | CCOc1cccc(/C=N/c2ccccc2NC(=O)Nc2cccc(Cl)c2)c1O [Compound 3a, (E)-1-(3-chlorophenyl)-3-(2-((3-ethoxy-2-hydroxybenzylidene)amino)phenyl) urea]
217 to 219 | CCOc1cccc(/C=N/c2ccccc2NC(=O)Nc2ccc(F)cc2)c1O [Compound 3b, (E)-1-(2-((3-ethoxy-2-hydroxybenzylidene)amino)phenyl)-3-(4-fluorophenyl) urea]
228 to 230 | CCOc1cccc(/C=N/c2ccccc2NC(=O)Nc2ccc3ccccc3c2)c1O [Compound 3d, (E)-1-(2-((3-ethoxy-2-hydroxybenzylidene)amino)phenyl)-3-(naphthalen-2-yl) urea]
204 to 206 | CCOc1cccc(/C=N/c2ccccc2NC(=O)Nc2ccc(OC)cc2)c1O [Compound 3e, (E)-1-(2-((3-ethoxy-2-hydroxybenzylidene)amino)phenyl)-3-(4-methoxyphenyl) urea]
218 to 220 | CCOc1cccc(/C=N/c2ccccc2NC(=O)Nc2ccc(Cl)cc2)c1O [Compound 3f, (E)-1-(4-chlorophenyl)-3-(2-((3-ethoxy-2-hydroxybenzylidene)amino)phenyl) urea]
216 to 218 | CCOc1cccc(/C=N/c2ccccc2NC(=O)Nc2ccccc2C)c1O [Compound 3g, (E)-1-(2-((3-ethoxy-2-hydroxybenzylidene)amino)phenyl)-3-(o-tolyl) urea]
203 to 205 | CCOc1cccc(/C=N/c2ccccc2NC(=O)Nc2cccc(C)c2)c1O [Compound 3h, (E)-1-(2-((3-ethoxy-2-hydroxybenzylidene)amino)phenyl)-3-(m-tolyl) urea]
210 to 212 | CCOc1cccc(/C=N/c2ccccc2NC(=O)Nc2ccc(C)cc2)c1O [Compound 3i, (E)-1-(2-((3-ethoxy-2-hydroxybenzylidene)amino)phenyl)-3-(p-tolyl)urea]
208 to 210 | COc1cccc(/C=N/c2ccccc2NC(=O)Nc2cccc(Cl)c2)c1O [Compound 3l, (E)-1-(3-chlorophenyl)-3-(2-((2-hydroxy-3-methoxybenzylidene)amino)phenyl) urea]
200 to 201 | COc1cccc(/C=N/c2ccccc2NC(=O)Nc2cccc(F)c2)c1O [Compound 3n, (E)-1-(3-fluorophenyl)-3-(2-((2-hydroxy-3-methoxybenzylidene)amino)phenyl) urea]
214 to 216 | COc1cccc(/C=N/c2ccccc2NC(=O)Nc2ccc3ccccc3c2)c1O [Compound 3o, (E)-1-(2-((2-hydroxy-3-methoxybenzylidene)amino)phenyl)-3-(naphthalen-2-yl) urea]
218 to 220 | COc1cccc(/C=N/c2ccccc2NC(=O)Nc2ccc(Cl)cc2)c1O [Compound 3q, (E)-1-(4-chlorophenyl)-3-(2-((2-hydroxy-3-methoxybenzylidene)amino)phenyl) urea]
201 to 203 | COc1cccc(/C=N/c2ccccc2NC(=O)Nc2cccc(C)c2)c1O [Compound 3s, (E)-1-(2-((2-hydroxy-3-methoxybenzylidene)amino)phenyl)-3-(m-tolyl) urea]
188 to 190 | COc1cccc(/C=N/c2ccccc2NC(=O)Nc2ccccc2)c1O [Compound 3u, (E)-1-(2-((2-hydroxy-3-methoxybenzylidene)amino)phenyl)-3-phenylurea]
200 to 212 | COc1cccc(/C=N/c2ccccc2NC(=O)Nc2ccc(C(C)=O)cc2)c1O [Compound 3v, (E)-1-(4-acetylphenyl)-3-(2-((2-hydroxy-3-methoxybenzylidene)amino)phenyl) urea]
219 to 221 | COc1cc(/C=N/c2ccccc2NC(=O)Nc2ccc(Cl)cc2)ccc1O [Compound 3w, (E)-1-(4-chlorophenyl)-3-(2-((4-hydroxy-3-methoxybenzylidene)amino)phenyl) urea]
200 to 202 | COc1cc(/C=N/c2ccccc2NC(=O)Nc2ccccc2C)ccc1O [Compound 3x, (E)-1-(2-((4-hydroxy-3-methoxybenzylidene)amino)phenyl)-3-(o-tolyl) urea]
